One compound from patent US10183941B2, “Pyrimidine or pyridopyridone compound and application thereof” (GUANGZHOU BEBETTER MEDICINE TECHNOLOGY CO., LTD., priority 2015, dated 2019) can be followed below.

One series relates to SW620. In words: Tumor cell proliferation inhibition (CellTiter-Glo), SW620. The series is classed as cell-based. As to conditions: Homo sapiens, SW-620; 72 hours, 10% fetal bovine serum; read-out: SW620 IC50 class. As for the experimental part:
(§1) The content of adenosine triphosphate (ATP) was determined using the CellTiter-Glo Luminescent Cell Viability Assay Kit (Promega, Madison, Wis.) to evaluate cell viability. Tumor cell lines (SW620, ZR-75-1, MDA-MB-231) were purchased from the Cell Resource Center of IBS, Fudan University, Shanghai and the American Type Culture Collection (ATCC). The cell density was determined using Scepter automated cell counter (Millipore # PHCC00000) after the cells were digested with pancreatin in cell culture dishes and resuspended in DPBS medium. The cells were diluted to a solution of 44,000 cells per ml. The cell solution of which density was adjusted was added into the cell assay plate at 90 microliters per well. The well plate was incubated in an incubator with 5% CO2 at 37° C. for 24 hours and then added with test compounds with different concentrations. The cells were incubated with the compounds in the presence of 10% fetal bovine serum for 72 hours. ATP content was assayed using the CellTiter-Glo® Luminescent Cell Viability Assay kit (see instructions of manufacturer) to assess cell growth inhibition. Briefly, 30 μl of CellTiter-Glo® reagent was added to each well, rocked for 10 minutes to induce cell lysis, and […] were detected and recorded with Fluoroskan Ascent FL (Thermo). The maximum signal value was obtained from the cells treated with dimethyl sulfoxide for 72 hours. The minimum signal value was obtained from the separate culture medium (cell number was zero). Inhibition rate %=(maximum signal value−compound signal value)/(maximum signal value−minimum signal value)×100. Data was processed using GraphPad Prism V5.0 (GraphPad Software, San Diego, Calif.) software. IC50 values were calculated by fitting S-shaped dose-response curves.

Series [1] concerns the target T1, CDK4 (GST-CDK4(1-303end)/GST-CycD3(1-292end)) (Homo sapiens, UniProt P11802).
T1 construct: GST-CDK4(1-303end); purchased Carna 04-105
In words: CDK4 activity inhibition experiment (Caliper mobility shift assay). The series is classed as biochemical. As to conditions: enzyme activity inhibition; read-out: CDK4 IC50 class.

In a further series the target is T2, CDK2 (Homo sapiens, UniProt P24941).
T2 construct: purchased Carna 04-103
In words: CDK2 activity inhibition experiment (Caliper mobility shift assay). The series is classed as biochemical. As to conditions: enzyme activity inhibition; read-out: CDK2 IC50 class. As for the experimental part:
After being incubated at 28° C. for 60 minutes, 25 μl of stop solution was added to stop the reaction. Conversion rate data was read from Caliper EZ Reader II (Caliper Life Sciences). The conversion rate data was converted into inhibition rate data. […] The curve was plotted with compound concentration and inhibition rate as horizontal and vertical coordinates, and the IC50 was calculated by fitting the curve using XLFit excel add-in version 4.3.1 software. Inhibition rate %=(max-conversion rate)/(max-min)×100.

Another series deals with MDA-MB-231. In words: Tumor cell proliferation inhibition (CellTiter-Glo), MDA-MB-231. The series is classed as cell-based. As to conditions: Homo sapiens, 72 hours, 10% fetal bovine serum, read-out: MDA-MB-231 IC50 class. As to the method:
as §1
(In ATP-based viability assays light output follows the ATP content of the culture.)

Series [2] concerns MDA-MB-231 breast cancer cells. In words: Cell cycle inhibition experiment (PI staining, flow cytometry). The series is classed as cell-based. As to conditions: Homo sapiens, MDA-MB-231 cells, 24 h. The source says: The cell cycle and apoptosis assay kit (Beyotime, C1052) used in this experiment is an assay kit for analyzing the cell cycle and apoptosis using the classic method of Propidium staining (PI staining). Propidium (PI) is a double-stranded DNA fluorescent dye. The combination of propidium and double-stranded DNA can produce fluorescence, and fluorescence intensity is proportional to the amount of double-stranded DNA. After DNA in cells is stained with propidium, the DNA content of the cells can be measured by flow cytometry, and then the cell cycle and apoptosis can be analyzed according to the distribution of DNA content.
MDA-MB-231 cells were seeded into a 6-well plate at 3×10^5 per well and cultured for 24 hours.
In tumor cell cycle, the binding of CDK4 and CDK6 to cyclin D promotes G1 phase into S phase. CDK4/6 inhibitor selectively arrests the G1 phase of tumor cells into S phase. The detection results of the cell cycle of MDA-MB-231 breast cancer cells by flow cytometry indicate that the CDK4/6 inhibitor compounds provided by the present disclosure stop the growth of G1 phase cells and reduce S phase cells in a concentration-dependent manner, as shown in the following table.
Background: A flow cytometer gives signals particle by particle.

A short description of series [3]: Pharmacokinetic (PK) experiment in rats. It counts as in vivo. As to conditions: male, SD, plasma, po, rat, intragastric 20 mg/kg. As for the experimental part: Male SD rats weighing 300-350 g were fasted overnight prior to the experiment. The compounds to be tested were dissolved in 30% sulfobutyl ether-β-cyclodextrin (SBE-β-CD) and the rats were intragastric administration at 20 mg/kg. The blood was taken from the tails of the rats at 15 min, 30 min, and 1, 2, 3, 4, 6, 8 and 24 hours after administration, with about 0.3 ml of blood at each time point, and then the blood was placed in a centrifuge tube containing K2-EDTA, and centrifuged (2,000 g, 10 min, 4° C.) to take the plasma which was then stored in an ultra-low temperature freezer at −80° C. 50 μL, of plasma sample was mixed with 5 μL of internal standard (IS) and extracted with ethyl acetate. The residue was redissolved in acetonitrile after vacuum drying. The sample was filtered and injected into LC-MS/MS for analysis to determine the concentration of the compounds to be tested.
In the table: Tmax refers to the peak time, Cmax refers to the maximum plasma drug concentration, T1/2 is the half-life, AUClast refers to the area under the 0-24 hour time-concentration curve, AUCinf refers to the area under the 0-Inf time-concentration curve.

For series [4], the target named is T3, CDK6 (GST-CDK6(1-326end)) (Homo sapiens, UniProt Q00534).
T3 construct: GST-CDK6(1-326end); purchased Carna 04-107
In words: CDK6 activity inhibition experiment (Caliper mobility shift assay). It counts as biochemical. As to conditions: enzyme activity inhibition; read-out: CDK6 IC50 class. As for the experimental part: The activity of CDK6 protein kinase was measured using Caliper mobility shift assay (see J. Biomol Screen 14:31, 2009). […] 10 μl of the 2.5 times diluted CDK6 enzyme solution (GST-CDK6(1-326end); Carna, Cat. No 04-107) was added and then incubated at room temperature for 10 minutes, then 10 μl of the 2.5 times diluted substrate solution Peptide FAM-P8 (GL Biochem, Cat. No. 112396) was added. After being incubated at 28° C. for 40 minutes, 25 μl of stop solution was added to stop the reaction. Conversion rate data was read from Caliper EZ Reader II (Caliper Life Sciences). The conversion rate data was converted into inhibition rate data. […] Conversion rate data was converted into inhibition rate data according to the method described above. Inhibition rate %=(max−conversion rate)/(max−min)×100.

A further series relates to ZR-75-1. In words: Tumor cell proliferation inhibition (CellTiter-Glo), ZR-75-1. It counts as cell-based. As to conditions: Homo sapiens, 72 hours, 10% fetal bovine serum, read-out: ZR-75-1 IC50 class. As for the experimental part: as §1
Series [5] relates to phosphorylation of Rb at Ser780 in MDA-MB-231 breast cancer cells. In words: Western Blot experiment, Rb phosphorylation. It counts as cell-based. As to conditions: MDA-MB-231 cells, 16 hours incubation, FIG. 1. As for the experimental part: MDA-MB-231 cells were grown in monolayer culture. […] The protein concentration was determined by the Branfor method. After being added with a loading buffer (Beyotime, # P0015L), the supernatant was boiled at 100° C. for 8 min, and the protein was separated by 8%-10% SDS-PAGE electrophoresis and then transferred to the PVDF membrane, and the membrane was blocked with 5% skimmed milk powder for 45 min, and then the cells were incubated overnight at 4° C. with primary antibody β-actin (CST, #4970), Rb (D20) Rabbit mAb (CST, #9313), Phospho-Rb(Ser780)(D59B7) Rabbit mAb (CST, #8180), and then the membrane was washed with TBST solution for 3×10 min. The cells were incubated in the dark at room temperature for 2 h with the fluorescent secondary antibody IRDye@680CW Goat (polyclonal) Anti-Rabbit 1gG (H+L), Highly Cross Adsorbed (LI-COR, #926-68071), and then the membrane was washed under the same condition above. Finally, the membrane was detected and imaged on a LI-COR Odyssey Infrared Fluorescence Scanning System, and the results are shown in FIG. 1.
CDK4/6 can make Rb protein lose the arrest on cell cycle by phosphorylating the tumor suppressor protein Rb protein. CDK4/6 inhibitor can prevent the inactivation of tumor suppressor protein Rb and thereby restore the arrest of Rb on cell cycle.
A general note: In western blotting, separated proteins are transferred to a membrane and probed.

Read-outs that look alike come from different tables or passages of the source.

T1 sequence (P11802 whole entry): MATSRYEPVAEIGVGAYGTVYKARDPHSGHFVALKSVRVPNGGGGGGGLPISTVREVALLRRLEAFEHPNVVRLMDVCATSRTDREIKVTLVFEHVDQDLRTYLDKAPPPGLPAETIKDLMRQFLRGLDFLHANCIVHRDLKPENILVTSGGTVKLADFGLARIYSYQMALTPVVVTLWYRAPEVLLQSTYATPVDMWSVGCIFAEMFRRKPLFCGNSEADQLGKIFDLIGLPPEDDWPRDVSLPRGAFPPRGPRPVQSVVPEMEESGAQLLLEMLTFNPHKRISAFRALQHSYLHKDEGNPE
T1 sequence (P30281 whole entry partner): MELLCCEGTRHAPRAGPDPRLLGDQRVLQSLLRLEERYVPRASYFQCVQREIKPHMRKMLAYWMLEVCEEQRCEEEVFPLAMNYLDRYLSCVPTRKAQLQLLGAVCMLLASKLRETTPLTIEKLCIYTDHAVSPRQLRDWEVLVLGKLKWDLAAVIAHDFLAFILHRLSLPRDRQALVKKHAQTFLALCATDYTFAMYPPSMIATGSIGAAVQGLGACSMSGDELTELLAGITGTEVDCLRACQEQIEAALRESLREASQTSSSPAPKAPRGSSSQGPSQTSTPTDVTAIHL
T3 sequence (Q00534 whole entry): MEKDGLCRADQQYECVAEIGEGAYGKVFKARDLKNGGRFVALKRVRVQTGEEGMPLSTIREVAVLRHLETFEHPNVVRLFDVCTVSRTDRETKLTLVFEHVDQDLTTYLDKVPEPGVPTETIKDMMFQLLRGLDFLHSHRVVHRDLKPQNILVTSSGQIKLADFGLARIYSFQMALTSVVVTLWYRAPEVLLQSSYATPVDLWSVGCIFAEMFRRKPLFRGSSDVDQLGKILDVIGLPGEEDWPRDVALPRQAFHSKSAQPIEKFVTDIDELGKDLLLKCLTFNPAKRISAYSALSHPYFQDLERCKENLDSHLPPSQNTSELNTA
T3 sequence (P30281 whole entry partner): as the sequence (P30281 whole entry partner) above

Broadly, the IC50 is the concentration needed to halve the response being measured. Usually Cmax stands for the peak of the concentration-time curve. As usually defined, the Tmax is the time from dosing to the highest level. For orientation: half-life means how long it takes for the measured level to halve. A low value points to rapid decline. A word on the AUC(0-t): it is exposure summed from dosing to a finite time, without extrapolation to infinity. A low value points to low exposure. As a reminder, the AUC(0-inf) is total exposure, with the tail of the curve extrapolated. High values mean more exposure, low ones less exposure. For `CC(=O)c1c(C)c2cnc(Nc3ccc(C4CCN(CCCS(C)(=O)=O)CC4)cn3)nc2n(C2CCCC2)c1=O` [Compound 2, 6-acetyl-8-cyclopentyl-5-methyl-2-((5-(1-(3-(methylsulfonyl)propyl)piperidin-4-yl)pyridin-2-yl)amino)pyrido[2,3-d]pyrimidin-7(8H)-one], the IC50 is 0.1 to 0.5 µM with SW620; under 0.01 µM in series [1]; over 0.5 µM at CDK2; 0.1 to 0.5 µM in the series on MDA-MB-231; 39.8 nM in series [2] (read-out: IC50 (nM) G1 arrest); 40.9 nM in series [2] (read-out: IC50 (nM) S decrease). Moreover, the half-inhibitory concentration (IC50) in [4] was 0.01 to 0.05 µM; with ZR-75-1, at most 0.1 µM. This compound also had a peak concentration (Cmax) in series [3] of 0.86 µg/mL. Moreover, in series [3], the Tmax was found to be 2.7 h. In addition, in [3], the half-life is 5 h. Moreover, the AUC(0-t) in [3] (0-24 hour) is 11.2 µg·h/mL. The compound further had an AUC(0-inf) in [3] (0-Inf) of 11.7 µg·h/mL. For the same compound, the “phosphorylation of Rb at Ser780 site” value in [5] is “effectively reduce”.
